Measured values taken from US7781421B2, “Neuroactive 13, 24-cyclo-18, 21-dinorcholanes and structurally related pentacyclic steriods” (Washington University, priority 2003, dated 2010).

How the values were obtained:
[1] = test system: Xenopus laevis tadpoles; test: Tadpole loss of righting (LRR) and swimming (LSR) reflexes; assay type: in vivo; conditions: 3 h equilibration at room temperature; for EC50: Xenopus laevis, 3 h, read-out: LSR EC50 (loss of swimming response)
Procedure, shortened: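 Groups of 10 early prelimb-bud Xenopus laevis tadpoles were held for 3 h at room temperature in oxygenated Ringer's containing compound (DMSO ≤0.1%). Loss of righting was scored as failure to right within 5 sec after flipping, and loss of swimming as failure to swim when touched. EC50 came from a Hill equation fit.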

[2] = molecular target: T1, rat α1β2γ2 GABAA Receptor (Rattus norvegicus, UniProt P18508+P62813+P63138, INS375LLRMFSFK); test: Xenopus oocyte two-electrode voltage-clamp electrophysiology; assay type: cell-based; conditions: for Oocyte electrophysiology, ratio of currents in presence/absence of compound, 0.1 μM: 0.1 μM compound co-applied with 2 μM GABA; for Oocyte electrophysiology, ratio of currents in presence/absence of compound, 0.1 μM / Oocyte electrophysiology, ratio of currents in presence/absence of compound, 1 μM / Oocyte electrophysiology, ratio of currents in presence/absence of compound, 10 μM: −70 mV; for Oocyte electrophysiology, ratio of currents in presence/absence of compound, 1 μM: 1 μM compound co-applied with 2 μM GABA; for Oocyte electrophysiology, ratio of currents in presence/absence of compound, 10 μM: 10 μM compound co-applied with 2 μM GABA; for Gating (10 μM), ratio of compound only current/2 μM GABA current: direct current gated by 10 μM compound in the absence of GABA
T1 construct: from linearized pBluescript vectors containing receptor coding regions; expressed in transfected cells; host or cells: Xenopus laevis oocytes injected with in vitro transcribed capped mRNA
T1 sequence (P62813 28-455, stated change not applied): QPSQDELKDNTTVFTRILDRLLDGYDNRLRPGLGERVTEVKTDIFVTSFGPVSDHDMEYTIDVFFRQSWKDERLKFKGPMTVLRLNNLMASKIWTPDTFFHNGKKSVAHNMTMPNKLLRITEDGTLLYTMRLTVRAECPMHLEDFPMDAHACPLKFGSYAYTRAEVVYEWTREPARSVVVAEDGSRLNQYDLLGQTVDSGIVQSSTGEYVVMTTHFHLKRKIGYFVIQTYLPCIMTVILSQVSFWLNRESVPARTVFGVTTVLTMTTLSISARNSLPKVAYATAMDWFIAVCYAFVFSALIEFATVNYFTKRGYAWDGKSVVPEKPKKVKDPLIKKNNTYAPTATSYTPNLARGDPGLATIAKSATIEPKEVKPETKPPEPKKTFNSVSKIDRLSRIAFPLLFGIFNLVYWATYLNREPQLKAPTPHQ
T1 sequence (P63138 26-474, stated change not applied): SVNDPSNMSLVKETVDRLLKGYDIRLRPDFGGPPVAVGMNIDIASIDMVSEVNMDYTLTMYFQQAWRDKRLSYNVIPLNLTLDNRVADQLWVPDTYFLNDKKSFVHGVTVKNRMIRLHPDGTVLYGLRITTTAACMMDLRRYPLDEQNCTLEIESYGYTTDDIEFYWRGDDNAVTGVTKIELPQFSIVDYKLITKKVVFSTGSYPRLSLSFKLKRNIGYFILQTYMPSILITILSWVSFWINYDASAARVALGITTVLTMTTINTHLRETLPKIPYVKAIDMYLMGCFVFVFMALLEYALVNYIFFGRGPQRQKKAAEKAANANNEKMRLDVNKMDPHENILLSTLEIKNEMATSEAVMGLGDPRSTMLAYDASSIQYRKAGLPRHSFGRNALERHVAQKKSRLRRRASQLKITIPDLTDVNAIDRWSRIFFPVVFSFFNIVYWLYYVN
T1 sequence (P18508 with tags, fused parts or gaps INS375LLRMFSFK): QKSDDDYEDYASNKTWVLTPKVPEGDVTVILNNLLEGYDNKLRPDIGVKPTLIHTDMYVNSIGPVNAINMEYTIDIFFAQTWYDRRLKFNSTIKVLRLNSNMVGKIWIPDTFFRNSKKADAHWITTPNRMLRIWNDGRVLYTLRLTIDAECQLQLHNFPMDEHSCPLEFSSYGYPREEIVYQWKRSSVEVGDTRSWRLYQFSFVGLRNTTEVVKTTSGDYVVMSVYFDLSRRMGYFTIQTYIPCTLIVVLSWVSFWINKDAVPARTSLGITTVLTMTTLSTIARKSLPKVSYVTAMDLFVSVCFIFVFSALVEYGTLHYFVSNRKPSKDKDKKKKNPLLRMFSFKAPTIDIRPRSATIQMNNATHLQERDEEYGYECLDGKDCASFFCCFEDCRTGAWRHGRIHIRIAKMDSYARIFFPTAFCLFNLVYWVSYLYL
Procedure, shortened: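 Oocytes injected with rat α1, β2, γ2L mRNA, voltage-clamped at −70 mV 2-5 days later in ND96. Compounds co-applied with 2 μM GABA for 20 s; peak current ratio with/without compound, n≥4 oocytes. (G): current from 10 μM compound alone, as ratio to 2 μM GABA current.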

[3] = molecular target: GABAA receptor ([35S]-TBPS binding site, rat brain cortical membranes); test: Displacement of [35S]-TBPS binding, rat brain cortical membranes; conditions: 5 μM GABA, 2 nM [35S]-TBPS; ± standard error of the means
Procedure, shortened: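 Rat cortical P2 membranes (0.5 mg/mL protein) incubated 2 h at room temperature with 2 nM [35S]-TBPS, 5 μM GABA and steroid (1 nM–10 μM) in 200 mM NaCl/50 mM potassium phosphate, pH 7.4. Filter-bound radioactivity counted; IC50 from Hill equation fit, triplicate points.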

| SMILES | LRR ED50 (loss of righting response) [1] | LSR EC50 (loss of swimming response) [1] | melting point | Oocyte electrophysiology, ratio of currents in presence/absence of compound, 0.1 μM [2] | Oocyte electrophysiology, ratio of currents in presence/absence of compound, 1 μM [2] | Oocyte electrophysiology, ratio of currents in presence/absence of compound, 10 μM [2] | Gating (10 μM), ratio of compound only current/2 μM GABA current [2] | IC50 [3] [nM] | EC50 [1] [nM] |
| --- | --- | --- | --- | --- | --- | --- | --- | --- | --- |
| C[C@]12CC[C@@H](O)C[C@@H]1CCC1C3CC[C@@H]4[C@]5(CCC[C@]34CCC12)CO5 (stereo partly drawn) [Compound 74, (3α,5α,20R)-20,21-Epoxy-13,24-cyclo-18-norcholan-3-ol] | >10000 nM | None @ 10 | 206 to 211 °C (dec.) | 1.61 ± 0.18 | 5.46 ± 1.21 | 4.53 ± 0.75 | −0.01 ± 0.01 | 64 ± 9 |  |
| CC(=O)C1CCCC23CCC4C(CCC5CC(O)CCC54C)C2CCC13 [Compound 79, (3α,5α,20S)-1-[3-Hydroxy-13,24-cyclo-18,21-dinorcholan-20-yl]ethanone] | None @ 10 | None @ 10 | 187 to 189 °C | 1.00 ± 0.08 | 1.13 ± 0.15 | 1.70 ± 0.12 | −0.06 ± 0.04 | 93 ± 9 |  |
| CC(=O)C1CCCC23CCC4C(CCC5CC(O)CCC54C)C2CCC13 [Compound 80, (3α,5α,20R)-1-[3-Hydroxy-13,24-cyclo-18,21-dinorcholan-20-yl]ethanone] | None @ 10 | None @ 10 | 228 to 229 °C | 0.85 ± 0.02 | 0.77 ± 0.03 | 0.93 ± 0.07 | 0.01 ± 0.01 | 2060 |  |
| CC(=O)C1=CCCC23CCC4C(CCC5CC(O)CCC54C)C2CCC13 (stereo not drawn) [Compound 83, (3α,5α)-1-[3-Hydroxy-13,24-cyclo-18,21-dinorchol-20(22)-en-20-yl]ethanone] | 7200 ± 6620 nM | None @ 10 | 198 to 200 °C | 0.89 ± 0.02 | 0.86 ± 0.04 | 1.15 ± 0.04 | 0.00 ± 0.00 | 3190 |  |
| CC12CCC(O)CC1CCC1C2CCC23CCC(=O)C2CCC13 (stereo not drawn) [Compound 89, (3α,5α)-3-Hydroxy-18,21-cyclopregnan-20-one] | 2630 ± 70 nM |  | 176 to 178.5 °C | 0.81 ± 0.02 | 1.02 ± 0.07 | 4.54 ± 0.64 | 0.01 ± 0.00 | 204 ± 36 | 5480 ± 150 |
| CC12CCC(O)CC1CCC1C2CCC23C=CC(=O)C2CCC13 (stereo not drawn) [Compound 94, (3α,5α)-3-Hydroxy-18,21-cyclopregn-18(21)-en-20-one] | 3370 ± 160 nM |  | 139 to 141 °C | 0.96 ± 0.02 | 1.41 ± 0.09 | 2.78 ± 0.13 | −0.04 ± 0.02 | 745 ± 75 | 9520 |
| CC12CCC(O)CC1CCC1C2CCC23C=C(Br)C(=O)C2CCC13 (stereo not drawn) [Compound 95, (3α,5α)-21-bromo-3-hydroxy-18,21-cyclopregn-18(21)-en-20-one] | 290 ± 40 nM |  | 220 to 222.5 °C | 1.25 ± 0.08 | 1.99 ± 0.20 | 8.75 ± 1.92 | 0.02 ± 0.02 | 94 ± 17 | 550 ± 90 |
| CC12CCC(O)CC1CCC1C2CCC23CCC(=CC#N)C2CCC13 (stereo not drawn) [Compound 96, (3α,5α,20E)-3-Hydroxy-18,21-cyclopregnan-20-ylideneacetonitrile] | 2770 ± 1160 nM | None @ 10 | 201 to 202.5 °C | 1.40 ± 0.21 | 2.33 ± 0.30 | 2.90 ± 0.29 | 0.03 ± 0.03 | 168 ± 32 |  |
| CC12CCC(O)CC1CCC1C2CCC23CCC(=CC#N)C2CCC13 (stereo not drawn) [Compound 97, (3α,5α,20Z)-3-Hydroxy-18,21-cyclopregnan-20-ylideneacetonitrile] | >10000 nM | None @ 10 | 226 to 228 °C | 0.88 ± 0.07 | 0.87 ± 0.15 | 1.10 ± 0.08 | −0.02 ± 0.06 | 17200 |  |
